According to US20260373164A1, “4(RS)-4-F4-NEUROPROSTANE DERIVATIVES (4-F4T-NEUROP) AND THEIR USE IN TREATING VENTILATOR INDUCED DIAPHRAGMATIC DYSFUNCTION AND OTHER DISEASES” (INSTITUT NATIONAL DE LA SANTÉ ET DE LA RECHERCHE MÉDICALE, priority 2022, published 2026):
Entries after “also recorded” stand apart in the source; their conditions may differ.

Key:
[1] = tested on: mouse diaphragm (VIDD); test: Diaphragm force-frequency relationship after 6 h of mechanical ventilation (murine model of VIDD); assay type: in vivo, C57/BL6 mice; details: for prevention of VIDD in murine model: general statement; for prevention of VIDD in murine model / protection against mechanical ventilation (force-frequency relationship): mice; for protection against mechanical ventilation (force-frequency relationship): IV
Protocol: 35 adult male mice (10 to 12 weeks old, 25 to 30 g) C57/BL6 mice were separated into five groups. Three groups were intubated with a 22-gauge angio-catheter and mechanically ventilated for 6 consecutive hours using a volume-driven small-animal ventilator (Minivent®, Harvard Apparatus, Saint-Laurent, Canada). Tidal volume was established at […] body weight with a respiratory rate of 150 breaths/min, a positive end-expiratory pressure (PEEP) level from 2 to 4 cm H2O and a fraction of inspired oxygen of 0.21. Non-spontaneous ventilation was defined as a lack of diaphragm contractile activity attested by repetitive stereotypical deflections observed in the airway pressure curve.
The mice were divided into two groups. The first group (control) received methanol, at the volume corresponding to the equivalent volume brought with 4F4t-NeuroP, intravenously (IV) infused over a 5-minute period, 20 minutes before start of MV. The second group of mice received 4F4t-NeuroP intravenously (IV) infused over a 5-minute period, 20 minutes before start of MV. The two groups were intubated and treated in an identical manner (see Matecki et al., 2016 for details^15).
At the end of the protocol of MV, the entire diaphragm was surgically excised and mice were euthanized, by exsanguination. Isometric contractile properties were assessed as described previously in detail (Matecki et al., 2016^15). The excised diaphragm strip was mounted into jacketed tissue bath chambers filled with equilibrated and oxygenated Krebs solution. The muscles were supra-maximally stimulated using square wave pulses (Model S48; Grass Instruments, West Warwick, RI). The force-frequency relationship was determined by sequentially stimulating the muscles for 600 ms at 10, 20, 30, 50, 60, 80, 100 and 120 Hz with 1 minute between each stimulation train. After measurement of contractile properties, muscles were measured at Lo (the length at which the muscle produced maximal isometric tension), dried and weighted. For comparative purposes, diaphragmatic force production was normalized for total muscle strip cross-sectional area and expressed in N·cm^−2. The total muscle strip cross-sectional area was determined by dividing muscle weight by its length and tissue density (1.056 g/cm^3).
Mice were anesthetized and mechanically ventilated for 6 hours. Mice were randomized to receive or not at the beginning of the ventilation a single IV injection of 4F4t-NeuroP at concentrations ranging from 0.01-100 μM to build a dose-response curve of the force-frequency relationship in order to define the optimal concentration.
As for 4F4t-NeuroP, VB558 was injected intravenously into the mouse at a concentration of 1 and 10 μM before ventilating the mice for 6 hours.

[2] = tested on: calstabin1/RyR1 complex; test: RyR1 biochemical analysis (immunoprecipitation): oxidation, phosphorylation, calstabin1 interaction; assay type: in vivo, mouse; details: for RyR function: associated with VIDD prevention in the murine and porcine models; for RyR oxidation, and phosphorylation: statement in discussion for both compounds
Protocol: Muscle biopsies were homogenized in 150 μl of buffer containing 5% SDS, 5% beta-mercaptoethanol, 10% glycerol, 10 mM EDTA and 50 mM Tris/HCl buffer (pH=8.0). Each sample was immediately denatured at 90 °C for 4 min. After centrifugation (5000 rpm) at 4 °C, supernatant protein concentrations were measured in duplicate using the BCA protein assay, equilibrated at the same concentration by dilution with loading buffer and aliquoted at 2 μg/μl. RyR1 was immunoprecipitated from 250 μg of homogenate using an anti-RyR antibody (4 μg RyR1-1327) in 0.5 ml of a modified RIPA buffer (50 mM Tris-HCl pH 7.4, 0.9% NaCl, 5.0 mM NaF, 1.0 mM Na3VO4, 1% Triton-X100, and protease inhibitors) for 1 hr at 4 °C. The immune complexes were incubated with protein A Sepharose beads (Amersham Pharmacia) at 4 °C for 1 hr and the beads were washed three times with buffer. Proteins were separated on SDS-PAGE gels (4-20% gradient) and transferred onto nitrocellulose membranes for 2 hr at 200 mA (SemiDry transfer blot, Bio-Rad). To prevent non-specific antibody binding, the membranes were incubated with blocking solution (LICOR Biosciences) and washed with Tris-buffered saline with 0.1% Tween-20.
Blots were respectively incubated with primary antibody to RyR1 (RyR1-1327, an affinity-purified rabbit polyclonal antibody raised against a KLH-conjugated peptide with the amino acid sequence CAEPDTDYENLRRS, corresponding to residues 1327-1339 of mouse skeletal RyR1, with an additional cysteine residue added to the amino terminus), and affinity purified with the unconjugated peptide. The inventors also used antibody to calstabin1 (1:2500 in blocking buffer, LICOR Biosciences); phospho-epitope-specific antibody to human RyR2 phosphorylated on Ser-2808 (1:5,000), which detects PKA-phosphorylated mouse RyR1 (on Ser-2844) and RyR2 (on Ser-2808); antibody to S-nitrosylated cysteine residues (1:1000, Sigma). To determine RyR1 oxidation, the immunoprecipitate was treated with 2, 4-dinitrophenyl hydrazine, and the derivatized carbonyls were detected using an OxyBlot protein oxidation detection Kit (catalog S7150, Chemicon International Inc.). After three washes, membranes were incubated with infrared-labeled secondary antibodies. Control samples were analyzed on each gel for normalization and total levels of RyR1 were not different between groups.
Diaphragm samples from the above experiments were frozen and solubilized to further investigate the biochemical properties of the RyR1 macromolecular complex.

SMILES	prevention of VIDD in murine model [1]	prevention of VIDD / diaphragm weakness (force-frequency relationship) ([1]; single IV injection of 4F4t-NeuroP 0.01-100 μM, 6 h MV)	concentration giving maximal effect in VIDD prevention ([1]; single IV injection, dose response 0.01-100 μM, 6 h MV, maximal force at 120 Hz)	RyR function [2]	biochemical signature of leaky RyR1 (oxidation, ser2844 phosphorylation, calstabin1 depletion) ([2]; mouse diaphragm after 6 h MV, 4F4t-NeuroP IV)	calstabin1/RyR1 complex ([2]; mouse diaphragm after 6 h MV, calstabin1/RyR1 interaction)	RyR oxidation, and phosphorylation [2]	protection against mechanical ventilation (force-frequency relationship) ([1]; VB558 1 μM, 6 h MV)	protection against mechanical ventilation (force-frequency relationship) ([1]; VB558 10 μM, 6 h MV)
CC/C=C\C/C=C\C/C=C\C[C@@H]1[C@H](/C=C/C(O)CCC(=O)O)[C@@H](O)C[C@H]1O (mixture of isomers) [Compound 4F4t-NeuroP, 4(RS)-4-F4t-Neuroprostane]	prevent with a high efficiency VIDD	prevents diaphragm weakness induced after 6 h of mechanical ventilation; also recorded: full prevention of VIDD	about 0.3 μM	normalization of RyR function	this post-translational remodeling was prevented; also recorded: fully prevented	Stabilizes the Complex Calstabin1/RyR1	prevent RyR oxidation, and phosphorylation		
CC/C=C\C[C@@H]1[C@H](/C=C/C(O)CCC(=O)O)[C@@H](O)C[C@H]1O (mixture of isomers) [VB558, (E)-6-((1S,2R,3R,5S)-3,5-dihydroxy-2-((Z)-pent-2-en-1-yl)cyclopentyl)-4-hydroxyhex-5-enoic Acid]	prevents VIDD; also recorded: prevent with a high efficiency VIDD			normalization of RyR function			prevent RyR oxidation, and phosphorylation	significant protection against mechanical ventilation in a range similar to that was obtained with 4F4t-NeuroP	significant protection against mechanical ventilation in a range similar to that was obtained with 4F4t-NeuroP
